A short description of data set [1]: refractive index (Na D-line) (dimensionless). As to conditions: 293.15 K; 101.33 kPa; Liquid; Standard Abbe refractometry.
For data set [2] the following is noted: Liquid; Ebulliometric method (Recirculating still).

Numbers after ± are expanded uncertainties.

Regarding `CC(O)C(C)O` (stereo not drawn) [2,3-butanediol], in data set [1], the refractive index was determined as 1.4375 ± 0.0021. Moreover, in data set [2], the Normal boiling temperature came out at 181.06 ± 0.5 °C.
The corresponding values for `CCCCO` [butan-1-ol] are 1.3993 ± 0.0021 and 116.97 ± 0.5 °C.
The corresponding values for `CCCCOC(C)=O` [butyl ethanoate] are 1.3941 ± 0.0021 and 125.96 ± 0.5 °C.
In the same order, the values of `CCOC(C)=O` [ethyl acetate] are 1.3701 ± 0.0021 and 77.09 ± 0.5 °C.
